Laboratory results: publication PMC12673918, “Design, Synthesis, and Selective Antiproliferative Activity of Indolizine Derivatives as Microtubule Destabilizers” (Archiv Der Pharmazie, 2025)
Like-named read-outs stand apart in the source and are kept apart here.

Key:
Format in all cases: cell-based
BT‐20 (breast carcinoma) = assay: Resazurin cell viability assay, BT‐20; conditions: Homo sapiens, BT-20; for inhibition at 50 µM: read-out: % Cellular growth inhibition (at 50 µM) BT‐20
Procedure, shortened: (§1)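 Cells in DMEM/10% FBS, 1 × 10^3 per well, adhered overnight, then treated with compounds (0–50 µM) for 72 h. Viability read as fluorescence (ex 530, em 590 nm) after 4 h with 44 µM resazurin. % growth inhibition at 50 µM and IC50 by nonlinear regression, triplicates.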

[1] = system: HGC‐27 (gastric carcinoma); assay: Resazurin cell viability assay, HGC‐27; conditions: for inhibition at 50 µM / IC50: Homo sapiens, HGC-27; for inhibition at 50 µM: read-out: % Cellular growth inhibition (at 50 µM) HGC‐27; for decrease in IC50 relative to 7f (HIT): HGC‐27
Procedure, shortened: as §1

human P2X7 receptor = biological target: T1, human P2X7 receptor (Homo sapiens, UniProt Q99572); assay: YO‐PRO‐1 dye uptake assay for the P2X7 receptor; conditions: for inhibition at 10 µM: P2X7, read-out: % Inhibition of P2X7R at 10 µM compounds’ concentration; for off‐target activity against the P2X7 receptor: 10 μM
T1 construct: host or cells: HEK-293
T1 sequence (Q99572 1-595): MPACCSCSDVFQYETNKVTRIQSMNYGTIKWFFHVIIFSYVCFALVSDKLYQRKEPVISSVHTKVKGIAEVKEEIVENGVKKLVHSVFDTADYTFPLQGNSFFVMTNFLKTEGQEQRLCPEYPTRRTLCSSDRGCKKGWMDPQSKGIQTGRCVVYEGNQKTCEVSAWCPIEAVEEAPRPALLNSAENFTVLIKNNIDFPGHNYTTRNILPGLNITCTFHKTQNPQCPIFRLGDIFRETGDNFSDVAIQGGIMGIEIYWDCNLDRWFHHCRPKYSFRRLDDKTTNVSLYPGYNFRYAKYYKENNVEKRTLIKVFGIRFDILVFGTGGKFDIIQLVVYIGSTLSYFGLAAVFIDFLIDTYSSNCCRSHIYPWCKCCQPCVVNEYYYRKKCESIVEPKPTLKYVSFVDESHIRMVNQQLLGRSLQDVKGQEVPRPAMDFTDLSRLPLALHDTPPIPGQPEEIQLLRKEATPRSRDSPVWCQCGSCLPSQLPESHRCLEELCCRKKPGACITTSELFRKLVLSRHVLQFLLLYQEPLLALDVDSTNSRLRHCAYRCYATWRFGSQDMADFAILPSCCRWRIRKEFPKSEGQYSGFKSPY
Method: HEK‐293 cell lines stably expressing human P2X7 receptor (hP2X7R‐HEK‐293, B'SYS GmbH, Witterswil, Switzerland) were maintained in a 50/50 mix of Dulbecco's Modified Eagle Medium and F12 medium (DMEM/F12) supplemented with 9% (v/v) FCS, 1% (v/v) Penicillin/Streptomycin (10000 I.U./mL, 10 mg/mL in 0.9% NaCl) and G418 (100 µg/mL) at 37°C and 5% CO2. Cells were subcultured in cell culture 75 cm^2 flasks and split every 2‐4 days (1:3; 1:6; 1:10) once confluent.
HEK‐293 cell lines stably expressing human P2X7 receptor were seeded into black‐walled Nunc 96‐well optical bottom plates (Thermo Fisher Scientific) at 2.0–4.0 × 10^4 cells/well and incubated at 37°C for 24–48 h. After removing the culture medium, cells were washed with 100 µL wash buffer (280 mM Sucrose; 5.6 mM KCl; 0.5 mM CaCl2; 10 mM D‐Glucose; 10 mM HEPES; 5 mM N‐Methyl‐D‐glucamine (pH 7.4)). Then, 50 µL assay buffer (280 mM Sucrose; 6.4 mM KCl, 10 mM D‐Glucose; 10 mM HEPES; 5.0 mM N‐Methyl‐D‐glucamine (pH 7.4)) and 50 µL of antagonist dilutions (10^–5–10^–9 M) in assay buffer were added, and the cells were incubated at 37°C for 30 min. […] Finally, the uptake of YO‐PRO‐1 dye was recorded in a 9‐point‐well scan by following the fluorescence change using a FlexStation 3 Multi‐Mode Microplate Reader (Molecular Devices, San Jose, CA, USA, Software SoftMax7 Pro, endpoint protocol, well scan with reading pattern “fill scan”, λ ex = 485 nm, λ em = 535 nm). To determine the concentration‐dependent uptake inhibition by antagonists, the YO‐PRO‐1 uptake, expressed as RFU, was plotted against the concentrations of the compounds.

[2] = 72 h, mean ± SD, n = 3, read-out: IC50 (nM) BT‐20
[3] = 72 hours, triplicate, read-out: IC50 (nM, Cellular growth inhibition) BT-20 (supplement)
[4] = 72 h, mean ± SD, n = 3, read-out: IC50 (nM) HGC‐27
[5] = 72 hours, triplicate, read-out: IC50 (nM, Cellular growth inhibition) HGC-27 (supplement)

Compound | inhibition at 10 µM (human P2X7 receptor) | IC50 (BT‐20 (breast carcinoma); [2]) | IC50 (BT‐20 (breast carcinoma); [3]) | IC50 [1, 4] | IC50 [1, 5] | inhibition at 50 µM (BT‐20 (breast carcinoma); 72 h, mean ± SD, n = 3) | inhibition at 50 µM ([1]; 72 h, mean ± SD, n = 3) | decrease in IC50 relative to 7f (HIT) [1] | off‐target activity against the P2X7 receptor (human P2X7 receptor)
COc1ccc2c(C(=O)c3cc(OC)c(OC)c(OC)c3)c(C(C)(C)C)cn2c1 [Compound 8b, [2‐(Tert‐Butyl)‐6‐Methoxyindolizin‐1‐yl](3,4,5‐Trimethoxyphenyl)Methanone] | -7% | – | – | – | – | 62 ± 0.5% | 46 ± 6% | – | –
CCCc1cn2cc(OC)ccc2c1C(=O)c1cc(OC)c(OC)c(OC)c1 [Compound 8h, (6‐methoxy‐2‐propylindolizin‐1‐yl)(3,4,5‐trimethoxyphenyl)methanone] | -1% | 90 ± 56 nM | 47 ± 18 nM | 75 ± 35 nM | 90 ± 56 nM | 71 ± 2.8% | 70 ± 3.3% | four‐ to sixfold decrease | none of the synthesized compounds, including 8e and 8h, showed significant activity
COc1ccc2c(C(=O)c3cc(OC)c(OC)c(OC)c3)c(C(F)(F)F)cn2c1 [Compound 8e, [6‐methoxy‐2‐(trifluoromethyl)indolizin‐1‐yl](3,4,5‐trimethoxyphenyl)methanone] | 8% | 105 ± 49 nM | 75 ± 21 nM | 117 ± 32 nM | 105 ± 49 nM | 62 ± 2.3% | 53 ± 2.2% | four‐ to sixfold decrease | none of the synthesized compounds, including 8e and 8h, showed significant activity

Continued, in another order:

inhibition at 10 µM (human P2X7 receptor) | IC50 (BT‐20 (breast carcinoma); [2]) | IC50 (BT‐20 (breast carcinoma); [3]) | IC50 [1, 4] | IC50 [1, 5] | Compound | inhibition at 50 µM (BT‐20 (breast carcinoma); 72 h, mean ± SD, n = 3) | inhibition at 50 µM ([1]; 72 h, mean ± SD, n = 3) | decrease in IC50 relative to 7f (HIT) [1] | off‐target activity against the P2X7 receptor (human P2X7 receptor)
10% | 800 ± 127 nM | 690 ± 156 nM | 880 ± 14 nM | 800 ± 127 nM | COc1ccc(-c2cn3cc(OC)ccc3c2C(=O)c2cc(OC)c(OC)c(OC)c2)cc1 [Compound 8k, [6‐methoxy‐2‐(4‐methoxyphenyl)indolizin‐1‐yl](3,4,5‐trimethoxyphenyl)methanone] | 64 ± 1.5% | 74 ± 2% | – | –
4% | 14100 nM | 12400 nM | 11900 nM | 14100 nM | COc1ccc2c(C(=O)c3ccc(Cl)c(Cl)c3)ccn2c1 [Compound 7e, (6‐methoxyindolizin‐1‐yl)(3,4‐dichlorophenyl)methanone] | 53 ± 1.8% | 68 ± 3.4% | – | –
-2% | 465 ± 35 nM | 300 ± 85 nM | 465 ± 35 nM | – | COc1ccc2c(C(=O)c3cc(OC)c(OC)c(OC)c3)c(-c3ccc(C)cc3)cn2c1 [Compound 8j, [6‐methoxy‐2‐(p ‐tolyl)indolizin‐1‐yl](3,4,5‐trimethoxyphenyl)methanone] | 61 ± 2% | 71 ± 2% | – | –
9% | 370 ± 28 nM | 325 ± 92 nM | 410 ± 212 nM | 370 ± 28 nM | COc1ccc2c(C(=O)c3cc(OC)c(OC)c(OC)c3)c(C)cn2c1 [Compound 8a, (6‐methoxy‐2‐methylindolizin‐1‐yl)(3,4,5‐trimethoxyphenyl)methanone] | 52 ± 5% | 41 ± 4.3% | – | –
